The values that follow come from patent US20080213396A1, “Copper Lowering Treatment Of Cardiac Disease” (The Regents of the University of Michigan, priority 2007, published 2008).

The subject of series [1] is doxorubicin model of heart damage. Kind of series: Zinc vs. TM therapy mouse doxorubicin study. It is filed as in vivo, C57BL/6 mice. The settings on record: for day 4 troponin I plasma level: FIG. 2; for day 4 CK MB plasma level: FIG. 3; for plasma Cp at day 0 (day of DXR administration): after pretreatment to lower Cp. The procedure: (§1) Mice and mouse food. All mice were 7-8 weeks old at the start of the various studies, were C57BL/6 purchased from Jackson Laboratory, Bar Harbor, Me., and were housed at 21±2° C. on a 12 hr light/dark cycle in polycarbonate cages containing corn cob bedding. Experimental animals were housed in the University of Michigan Unit for Laboratory Animal Medicine facility and treated in accord with a protocol approved by the University of Michigan Institutional Animal Care and Use Committee. They were fed a mouse diet from Harlan/Teklad, Madison, Wis., to which copper and zinc had not been added by the manufacturer. Each lot was assayed by atomic absorption and found to contain about 0.6 mg of copper and about 6.0 mg of zinc/kg of food. Copper and zinc are then added to the diet such that the final contents were 2 mg copper and 10 mg zinc/kg of food.
Zinc vs. TM therapy mouse doxorubicin study. The zinc depot method involved injecting subcutaneously a 20 mg zinc/mL of corn oil suspension to achieve a dose of 110 mg of zinc/kg of mouse weight, weekly. With this method, Cp levels were lowered to target range in 4 weeks. Cp levels were lowered with TM in a second group of mice by using 0.015 mg/ml of TM in the drinking water, and changing the drinking water every day.
20 male mice were divided into four equal groups, 5 to receive depot zinc and then DXR, 5 to receive TM in the drinking water and then DXR, 5 to receive DXR only, and 5 to serve as controls. After Cp levels had been lowered in the first two groups, the first three groups of mice received DXR intraperitoneally at a single dose of 20 mg/kg body weight. Since DXR toxicity inhibits mice from drinking water, after DXR administration, TM mice were treated with a daily gavage of 0.2 mg of TM in 0.1 ml of water. Four days after DXR, all mice were sacrificed, and Cp, troponin I, creatine kinase (CK) MB, and lactic dehydrogenase (LDH) levels were all measured in the plasma according to previously described methods.
(§2) Assay Methods. Cp was measured by the oxidase enzyme using known methods. Troponin I, LDH, and CK MB were measured by kit methods using known methods.
(§3) Statistical Analysis. For the comparison of means analysis of variance (ANOVA) was used. All data in the figures are given as means+the standard error.

Series [2] has as its system doxorubicin toxicity. As to conditions: mice, previously found; cited from earlier work.
A short description of series [3]: Solubility and storage stability of TM salts. The series is classed as physicochemical. The text has this:
In some embodiments, the salt of TM is an ammonium salt. […] Thus, the bulk drug should be stored in the absence of oxygen, or the oxygen will gradually exchange with the sulfur, rendering the drug ineffective over time. The bulk drug is therefore stored under argon.
Thus, other salts have been prepared and evaluated for solubility, stability and anticopper activity. […] In other embodiments, the salt choline TM has suitable desirable properties. In yet other embodiments, the salt tetraethyl TM has suitable properties. These exemplary salts of TM have suitable solubility in water, and behave similarly to ammonium salt of TM in in vitro copper complexing studies.

The conditions of series [4]: stability assays developed by the inventors (Brewer et al. 1991); cited from earlier work.
The subject of series [5] is myocardial toxicity resulting from administration of doxorubicin HCl. As to conditions: administered contemporaneously with doxorubicin HCl; cited from earlier work.
In series [6] the test system is DXR induced cardiotoxicity and myocardial fibrosis. Kind of series: Trientine mouse doxorubicin study. The series is classed as in vivo, mice. The procedure:
as §1, with “Each lot was assayed by atomic absorption and found to contain about 0.6 mg of copper and about 6.0 mg of zinc/kg of food.” left out
Trientine mouse doxorubicin study. The copper chelator trientine was studied and compared to TM to determine the effects, if any, of trientine on DXR induced cardiotoxicity and myocardial fibrosis in mice using doses of trientine by oral gavage to lower the Cp to target range.
as §2, §3

Series [7] deals with Wilson's disease. The settings on record: cited from earlier work.
Series [8] concerns DXR toxicity. As to the kind of experiment: TM therapy copper supplementation doxorubicin study. It is filed as in vivo, mice. As for the experimental part:
as §1
TM therapy copper supplementation doxorubicin study. In order to verify that the effect of TM in the DXR study was due to lowering copper, a study of DXR toxicity was done in which a TM treated group was supplemented with excess copper. In this study, 20 mice were divided into four equal groups, 5 to receive 0.015 mg/ml of TM in the drinking water to lower Cp and then receive DXR (TM was given by gavage after DRX), 5 to receive TM in the same dose and manner as the first group but the diet was supplemented with either 30 or 100 ppm copper such that the Cp didn't fall as far as with TM alone, and then they received DXR, 5 to receive DXR only, and 5 served as controls. After Cp was decreased in the first group, DXR in an intraperitoneal dose of 20 mg/kg body weight was given to the first three groups of mice. Four days after DXR the mice were sacrificed and serum Cp, troponin I, and LDH determined.
as §2, §3

The mark [9] stands for this setting: 4 days after DXR, vs DXR controls.

On to `[Zn]` [zinc, reference compound], for which, in series [1] (setting [9]), the “day 4 troponin I plasma level” value is listed as “somewhat lower mean value than controls, but it didn't reach statistical significance” and the “day 4 CK MB plasma level” value is on record as “no effect”. In series [1] (FIG. 1), the “plasma Cp at day 0 (day of DXR administration)” value is recorded as “equal suppression of Cp”. Further, in series [1] (zinc depot s.c. 110 mg zinc/kg weekly), the “time until Cp levels lowered to target range” value worked out at 4 weeks. Further, in series [2], the “effect on doxorubicin toxicity” value was “attenuates doxorubicin toxicity”.

As for `[NH4+].[NH4+].[SH-].[SH-].[S]=[Mo]=[S]` [TM as the ammonium salt], the solubility in water result in series [3] is on record as “moderately water soluble”. Moreover, in series [3] (bulk drug), the stability in air result is given as “mild air instability”. In series [3] (room temperature), the stability in capsules entry was “stable in capsules for several months at room temperature”. Further, the “stability of bulk drug under argon” value in series [4] is on record as “stable for several years under argon”.

Turning to `C[C@@H](CN1CC(=O)NC(=O)C1)N1CC(=O)NC(=O)C1` [dexrazoxane, (S)-(+)-bis-4,4′-(1-methyl-1,2-ethanediyl)2,6-piperazinedione], the “effect on myocardial toxicity of doxorubicin HCl” value in series [5] is listed as “can reduce or prevent the myocardial toxicity”.

For `NCCNCCNCCN` [trientine], in series [6] (FIG. 5B), the “effect on LDH” value is recorded as “no protective effect”. For the same compound, in series [6] (FIG. 5C), the “effect on CK-MB” value is “no protective effect”. Moreover, the “effect on Troponin 1” value in series [6] (FIG. 5D) is on record as “statistically insignificant effect”. In series [6] (continued trientine therapy by oral gavage, FIG. 5A), the “Cp at day 4 (4 days after DXR)” value is listed as “increased into the normal range”. Besides, the “Cp at day 0 (when DXR is given)” value in series [6] (pretreated by oral gavage, FIG. 5A) is “down significantly, into the target range”.

On to `[Mo]` [Mo, molybdenum], for which the “toxicity of high doses” value in series [7] (human, in vivo) was “without toxicity”.

In the case of `CCC[N+](CCC)(CCC)CCC.CCC[N+](CCC)(CCC)CCC.[S]=[Mo](=[S])([S-])[S-]` [TPTM, tetrapropyl tetrathiomolybdate], the “solubility, stability and anticopper activity, overall” value in series [3] is recorded as “has met all desired properties”.

For the compound `[SH-].[SH-].[S]=[Mo]=[S]` [TM, tetrathiomolybdate], the “plasma Cp at day 4 (day of sacrifice), increase after DXR” value in series [1] (4 days after DXR 20 mg/kg i.p., FIG. 1) is “almost completely prevented”. For the same compound, in series [1] (setting [9]), the “day 4 troponin I plasma level” value is listed as “statistically significant effect on maintaining a lower troponin I” and the “day 4 CK MB plasma level” value was “statistically significantly lower value than DXR controls”. Also, the “day 4 LDH plasma level” value in series [1] (4 days after DXR, vs DXR controls, FIG. 4) is listed as “statistically significant effect on maintaining lower values than DXR controls”. Moreover, in series [1] (FIG. 1), the “plasma Cp at day 0 (day of DXR administration)” value is “equal suppression of Cp”. Moreover, the “protection against cardiac damage, comparison with zinc” value in series [1] (similar levels of copper lowering at the time of doxorubicin exposure) was “much more effective than zinc”. For the same compound, the “protection of the heart against doxorubicin toxicity, comparison with trientine” value in series [6] (same animal model) is given as “much more effective than trientine”. Also, the “Cp value on day zero (day of DXR administration)” value in series [8] (group average, DXR only group about 25 U/L) is “about 12 U/L”. In series [8] (vs DXR only animals, FIG. 6), the “plasma LDH at day 4 after DXR” value is listed as “statistically significantly lower than in the DXR only animals”. For the same compound, the “mean troponin I level at day 4 after DXR” value in series [8] (vs DXR only animals, FIG. 7) was “less than half of the DXR only animals”. Moreover, the toxicity in humans entry in series [7] (Wilson's disease work) is “extremely low level of toxicity”. In series [7] (Wilson's disease), the “effect on neurological worsening during initial treatment” value is recorded as “prevents the neurological worsening”.

On to `CC(C)(S)[C@@H](N)C(=O)O` [penicillamine, reference compound], for which the “neurological worsening during initial treatment” value in series [7] (Wilson's disease, share of the time) is reported as 50%.
